# Results: patent US8377876B2, “Pediatric amino acid solution for parenteral nutrition” (Fresenius Kabi Deutschland GmbH, priority 2006, dated 2013)
# Peptide text beside a SMILES is read from it.
# Test: Thermal sterilization of 200 g/l alanyl-glutamine solution; degradation products determined after sterilization
# Type: physicochemical
# Conditions: sterilization at 121° C., 124° C. and 127° C., pH 5 to 6, constant F0 12-12.5
# Method: The sterilization temperature is in this connection preferably ≧124° C. and particularly preferably ≧127° C. The pH is preferably between 5 and 6.5. It is possible to reduce the holding times for the thermal sterilization on use of higher temperatures. Under the preferred conditions, distinctly smaller amounts of degradation products are found in the sterilized product (example 3).
# A solution of 200 g/l alanyl-glutamine was sterilized at temperatures of 121° C., 124° C. and 127° C. The pH was varied between pH 5, pH 5.5 and pH 6. […] The F0 value describes the sterilization efficiency and corresponds to the holding time at 121.11° C. For sterilization at higher temperatures, the holding times were reduced to maintain a constant F0 value. After the sterilization, the amounts of the degradation products of the dipeptide alanyl-glutamine, cyclo-alanyl-glutamine and L-pyro-alanyl-glutamine were determined. Lower values for these degradation products are a direct indication of the stability of the dipeptide during the sterilization.
compound,measurement,value
"C[C@H](N)C(=O)N[C@@H](CCC(N)=O)C(=O)O [alanyl-glutamine, L-Alanyl-L-glutamine] (H-Ala-Gln-OH)",values for the degradation products (stability of the dipeptide during sterilization),fell at higher temperature
